Data as given in patent US20250221979A1, “NOVEL HETEROCYCLIC COMPOUND” (SHOUYAO HOLDINGS (BEIJING) CO., LTD., priority 2022, published 2025).
Counter-ions that a name gives are not always drawn.

Target: human MAT2A enzyme (Homo sapiens (Human), UniProt P31153)
Assay: In vitro enzymatic inhibition activity assay on MAT2A (PiColorLock phosphate detection)
Assay type: biochemical
Details: purified human MAT2A 10 nM, ATP 50 μM, L-methionine 100 μM, 6 h at 23° C.; read-out: MAT2A inhibitory activity IC50
Protocol: Enzymatic activity assays of compounds of this patent against MAT2A (to detect half inhibitory concentration IC50 values of the compounds) were performed using the phosphate detection kit PiColorLockTM (ab270004, purchased from Abcam). This method utilized the principle that purified human MAT2A enzyme catalyzes the formation of S-adenosylmethionine (SAM) from L-methionine and ATP to release free phosphate, and used the spectrophotometric method to quantify phosphate, so as to determine the enzymatic activity of MAT2A. Compounds were diluted in a 10-fold gradient starting at 1 mM with 100% DMSO (for a total of 8 concentrations) and 2 μL of each concentration was added to 48 μL of reaction buffer (50 mM Tris-HCl PH 7.5, 50 mM KCl, 10 mM MgCl2, 0.01% Brij-35, 0.01% BSA, 1 mM DTT) and mixed well. The final diluted compound was prepared, and 5 μL of MAT2A enzyme (final concentration of 10 nM), 5 μL of ATP (final concentration of 50 μM), and 5 μL of L-methionine (final concentration of 100 μM) were added to each well of a 384-well plate (#3701, purchased from CORNING). After the 384-well plate was placed in the incubator at 23° C. for 6 h, 5 μL of PiColorLock reagent diluted Accelerator (dilution ratio 1:100) was added to each well, and the reaction was stopped by incubating in the incubator at 23° C. for 5 min. 2 μL of Stabiliser was added, the absorbance was read at 630 nm on BMG CLARIOstar, and the IC50 value of the compound was calculated by using GraphPad Prism software.
Under the conditions of this experiment, the inhibition of MAT2A by test compounds can be expressed as an IC50 value for the inhibition of the level of phosphate production during the enzymatic reaction.

human MAT2A enzyme, sequence (P31153 whole entry): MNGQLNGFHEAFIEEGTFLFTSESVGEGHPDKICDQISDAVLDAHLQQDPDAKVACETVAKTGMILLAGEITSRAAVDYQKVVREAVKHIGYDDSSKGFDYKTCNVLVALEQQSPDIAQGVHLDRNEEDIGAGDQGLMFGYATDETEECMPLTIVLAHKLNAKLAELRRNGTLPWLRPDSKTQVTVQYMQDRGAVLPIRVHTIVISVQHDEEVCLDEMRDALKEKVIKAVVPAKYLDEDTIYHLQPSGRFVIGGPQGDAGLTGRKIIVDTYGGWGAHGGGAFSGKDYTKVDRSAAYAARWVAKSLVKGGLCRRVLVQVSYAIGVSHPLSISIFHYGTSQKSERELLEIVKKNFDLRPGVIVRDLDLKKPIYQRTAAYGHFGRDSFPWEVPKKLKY

Row | SMILES | IC50
1 | COC(=O)c1c(N)c2ccc(C(F)(F)F)cc2n(-c2ccc(OC)cc2F)c1=O [Example 97, methyl 4-amino-1-(2-fluoro-4-methoxyphenyl)-2-oxo-7-(trifluoromethyl)-1,2-dihydroquinoline-3-carboxylate] | 9.95 nM
2 | COC(=O)c1c(N)c2ccc(Br)cc2n(-c2ccc(C)cc2)c1=O [Example 101, methyl 4-amino-7-bromo-1-(4-methylphenyl)-2-oxo-1,2-dihydroquinoline-3-carboxylate] | 0.59 nM
3 | COC(=O)c1c(N)c2ccc(Br)cc2n(-c2ccc(Br)cc2)c1=O [Example 107, methyl 4-amino-7-bromo-1-(4-bromophenyl)-2-oxo-1,2-dihydroquinoline-3-carboxylate] | 1.52 nM
4 | COC(=O)c1c(N)c2ccc(C(F)(F)F)cc2n(-c2ccc3c(c2)OCC3)c1=O [Example 111, methyl 4-amino-1-(2,3-dihydro-1-benzofuran-6-yl)-2-oxo-7-(trifluoromethyl)-1,2-dihydroquinoline-3-carboxylate] | 4.06 nM
5 | CNc1ccc(-n2c(=O)c(C(=O)OC)c(N)c3ccc(C(F)(F)F)cc32)cc1 [Example 115, methyl 4-amino-1-(4-(methylamino)phenyl)-2-oxo-7-(trifluoromethyl)-1,2-dihydroquinoline-3-carboxylate hydrochloride] | 2.89 nM
6 | COC(=O)c1c(N)c2ccc(C(F)(F)F)cc2n(-c2ccc(I)cc2)c1=O [Example 125, methyl 4-amino-1-(4-iodophenyl)-2-oxo-7-(trifluoromethyl)-1,2-dihydroquinoline-3-carboxylate] | 2.67 nM
7 | COC(=O)c1c(N)c2ccc(C(F)(F)F)cc2n(-c2ccc3ocnc3c2)c1=O [Example 128, methyl 4-amino-1-(benzo(2,1-d)(1,3)oxazol-5-yl)-2-oxo-7-(trifluoromethyl)-1,2-dihydroquinoline-3-carboxylate] | 3.49 nM
8 | COC(=O)c1c(N)c2ccc(Br)cc2n(-c2ccc([N+](=O)[O-])cc2)c1=O [Example 130, methyl 4-amino-2-oxo-7-bromo-1-(4-nitrophenyl)-1,2-dihydroquinoline-3-carboxylate] | 5.99 nM
9 | C=Cc1ccc(-n2c(=O)c(C(=O)OC)c(N)c3ccc(C(F)(F)F)cc32)cc1 [Example 132, methyl 4-amino-2-oxo-7-(trifluoromethyl)-1-(4-vinylphenyl)-1,2-dihydroquinoline-3-carboxylate] | 4.91 nM
10 | C#Cc1ccc(-n2c(=O)c(C(=O)OC)c(N)c3ccc(C(F)(F)F)cc32)cc1 [Example 133, methyl 4-amino-1-(4-ethynylphenyl)-2-oxo-7-(trifluoromethyl)-1,2-dihydroquinoline-3-carboxylate] | 2.79 nM
11 | COC(=O)c1c(N)c2ccc(C3CC3)cc2n(-c2ccc(Cl)cc2)c1=O [Example 134, methyl 4-amino-1-(4-chlorophenyl)-7-cyclopropyl-2-oxo-1,2-dihydro quinoline-3-carboxylate] | 2.01 nM
12 | COC(=O)c1c(N)c2ccc(C(F)(F)F)cc2n(-c2ccc3c(c2)CCC3O)c1=O (stereo not drawn) [Example 135, methyl 4-amino-1-(1-hydroxy-2,3-dihydro-1H-inden-5-yl)-2-oxo-7-(trifluoromethyl)-1,2-dihydroquinoline-3-carboxylate] | 8.85 nM
13 | COC(=O)c1c(N)c2ccc(C(F)(F)F)cc2n(-c2ccc3c(c2)C(O)CC3)c1=O (stereo not drawn) [Example 137, methyl 4-amino-1-(3-hydroxy-2,3-dihydro-1H-inden-5-yl)-2-oxo-7-(trifluoromethyl)-1,2-dihydroquinoline-3-carboxylate] | 3.34 nM
14 | CCc1ccccc1-n1c(=O)c(C(=O)OC)c(N)c2ccc(C(F)(F)F)cc21 [Example 145, methyl 4-amino-1-(2-ethylphenyl)-2-oxo-7-(trifluoromethyl)-1,2-dihydroquinoline-3-carboxylate] | 4.6 nM
15 | COC(=O)c1c(N)c2ccc(C(F)(F)F)cc2n(-c2ccc3c(c2)CCC3(C)O)c1=O (stereo not drawn) [Example 148, methyl 4-amino-1-(1-hydroxy-1-methyl-2,3-dihydro-1H-inden-5-yl)-2-oxo-7-(trifluoromethyl)-1,2-dihydroquinoline-3-carboxylate] | 2.83 nM
16 | COC(=O)c1c(N)c2ccc(C(F)(F)F)cc2n(-c2ccc(C)cc2C)c1=O [Example 149, methyl 4-amino-1-(2,4-dimethylphenyl)-2-oxo-7-(trifluoromethyl)-1,2-dihydroquinoline-3-carboxylate] | 3.12 nM
17 | COC(=O)c1c(N)c2ccc(C(F)(F)F)nc2n(-c2ccccc2)c1=O [Example 150, methyl 4-amino-2-oxo-1-phenyl-7-(trifluoromethyl)-1,2-dihydro-1,8-naphthyridine-3-carboxylate] | 1.66 nM
18 | COC(=O)c1c(N)c2ccc(C(F)(F)F)cc2n(-c2ccc(Cl)cc2C)c1=O [Example 151, methyl 4-amino-1-(4-chloro-2-methylphenyl)-2-oxo-7-(trifluoromethyl)-1,2-dihydroquinoline-3-carboxylate] | 2.86 nM

Continued, values first:

Row | IC50 | SMILES
19 | 1.64 nM | COC(=O)c1c(N)c2ccc(Br)cc2n(-c2ccc(Cl)cc2C)c1=O [Example 152, methyl 4-amino-7-bromo-1-(4-chloro-2-methylphenyl)-2-oxo-1,2-dihydroquinoline-3-carboxylate]
20 | 2.62 nM | COC(=O)c1c(N)c2ccc(C(F)(F)F)cc2n(-c2ccc3sccc3c2)c1=O [Example 153, methyl 4-amino-1-(benzo[b]thiophen-5-yl)-2-oxo-7-(trifluoromethyl)-1,2-dihydroquinoline-3-carboxylate]
21 | 1.93 nM | CCc1ccc(-n2c(=O)c(C(=O)OC)c(N)c3ccc(C(F)(F)F)cc32)cc1 [Example 155, methyl 4-amino-1-(4-ethylphenyl)-2-oxo-7-(trifluoromethyl)-1,2-dihydroquinoline-3-carboxylate]
22 | 3.83 nM | COC(=O)c1c(N)c2ccc(C(F)(F)F)cc2n(-c2ccc(C(C)O)c(F)c2)c1=O (stereo not drawn) [Example 158, methyl 4-amino-1-(3-fluoro-4-(1-hydroxyethyl)phenyl)-2-oxo-7-(trifluoromethyl)-1,2-dihydroquinoline-3-carboxylate]
23 | 2.87 nM | COC(=O)c1c(N)c2ccc(C(F)(F)F)cc2n(-c2cn[nH]c2)c1=O [Example 159, methyl 4-amino-2-oxo-1-(1H-pyrazol-4-yl)-7-(trifluoromethyl)-1,2-dihydroquinoline-3-carboxylate]
24 | 4.67 nM | COC(=O)c1c(N)c2ccc(Br)cc2n(-c2cnc(Cl)cc2C)c1=O [Example 161, methyl 4-amino-7-bromo-1-(6-chloro-4-methylpyridin-3-yl)-2-oxo-1,2-dihydroquinoline-3-carboxylate]
25 | 7.58 nM | COC(=O)c1c(N)c2ccc(C(F)(F)F)cc2n(-c2ccc(C=O)cc2)c1=O [Example 164, methyl 4-amino-1-(4-formylphenyl)-2-oxo-7-(trifluoromethyl)-1,2-dihydroquinoline-3-carboxylate]
26 | 2.59 nM | COC(=O)c1c(N)c2ccc(Br)cc2n(-c2ccc(N)c3cnccc23)c1=O [Example 178, methyl 4-amino-1-(8-aminoisoquinolin-5-yl)-7-bromo-2-oxo-1,2-dihydroquinoline-3-carboxylate]
27 | 1.16 nM | COC(=O)c1c(N)c2ccc(C(F)(F)F)cc2n(-c2ccc(N)nc2)c1=O [Example 182, methyl 4-amino-1-(6-aminopyridin-3-yl)-2-oxo-7-(trifluoromethyl)-1,2-dihydroquinoline-3-carboxylate]
28 | 8.94 nM | C=Cc1ccc2c(N)c(C(=O)OC)c(=O)n(-c3cccc4cnccc34)c2c1 [Example 185, methyl 4-amino-1-(isoquinolin-5-yl)-2-oxo-7-vinyl-1,2-dihydroquinoline-3-carboxylate]
29 | 0.76 nM | COC(=O)c1c(N)c2ccc(C(F)(F)F)cc2n(-c2ccc3ccoc3c2)c1=O [Example 187, methyl 4-amino-1-(1-benzofuran-6-yl)-2-oxo-7-(trifluoromethyl)-1,2-dihydroquinoline-3-carboxylate]
30 | 0.32 nM | [2H]C([2H])([2H])OC(=O)c1c(N)c2ccc(Br)cc2n(-c2ccc(N)cc2)c1=O [Example 189, methyl-d3 4-amino-1-(4-aminophenyl)-7-bromo-2-oxo-1,2-dihydroquinolin-3-carboxylate]
31 | 6.47 nM | COC(=O)c1c(N)c2ccc(C(F)(F)F)cc2n(-c2cccc3ccncc23)c1=O [Example 192, methyl 4-amino-1-(isoquinolin-8-yl)-2-oxo-7-(trifluoromethyl)-1,2-dihydro quinoline-3-carboxylate]
32 | 4.91 nM | COC(=O)c1c(N)c2ccc(Br)cc2n(-c2cccc3nccn23)c1=O [Example 195, methyl 4-amino-7-bromo-1-(imidazo(3,2-a)pyridin-5-yl)-2-oxo-1,2-dihydro quinoline-3-carboxylate]
33 | 0.81 nM | COC(=O)c1c(N)c2ccc(C(F)(F)F)cc2n(-c2ccc3occc3c2)c1=O [Example 196, methyl 4-amino-1-(6-benzofuran-5-yl)-2-oxo-7-(trifluoromethyl)-1,2-dihydro quinoline-3-carboxylate]
